According to ChEMBL document CHEMBL1201862, “PubChem BioAssay data set” (2004):
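Growth conditions: 96-well plates. Treatment: test compound, 48 hours, 5 concentrations. Analysis: linear interpolation between bracketing concentrations; unreached endpoints set to highest concentration. GI50 is the concentration that inhibits growth by half.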 Activity calls are given as the source filed them. Cut-off read from the data, not from the text of the source: active = GI50 up to about 1.1 µM and inactive = higher.

Legend:
Assay in all cases: DTP human tumour cell line panel, 48 h
[1] = test system: A549
[2] = test system: MDA-N
[3] = test system: Hs-578T
[4] = test system: OVCAR-5
[5] = test system: TK-10
[6] = test system: HL-60
[7] = test system: M14
[8] = test system: SK-MEL-2
[9] = test system: SF-539
[10] = test system: MDA-MB-231
[11] = test system: BT-549
[12] = test system: CAKI-1
[13] = test system: KM12
[14] = test system: SF-268
[15] = test system: PC-3
[16] = test system: HT-29
[17] = test system: SF-295
[18] = test system: HCT-15
[19] = test system: HOP-92
[20] = test system: SR

CCOc1nnnc2[nH]cnc12
GI50 [1]: > 100 µM (inactive)
GI50 [2]: > 100 µM (inactive)
GI50 [3]: > 100 µM (inactive)
GI50 [4]: > 100 µM (inactive)
GI50 [5]: > 100 µM (inactive)
GI50 [6]: > 100 µM (inactive)
GI50 [7]: > 100 µM (inactive)
GI50 [8]: > 100 µM (inactive)
GI50 [9]: > 100 µM (inactive)
GI50 [10]: > 100 µM (inactive)
GI50 [11]: > 100 µM (inactive)
GI50 [12]: > 100 µM (inactive)
GI50 [13]: > 100 µM (inactive)
GI50 [14]: > 100 µM (inactive)
GI50 [15]: > 100 µM (inactive)
GI50 [16]: > 100 µM (inactive)
GI50 [17]: > 100 µM (inactive)
GI50 [18]: > 100 µM

COc1cccc2c1CCc1cc3c(N)nc(N)nc3nc1-2
GI50 [1]: 2.45 µM (inactive)
GI50 [2]: 2.94 µM (inactive)
GI50 [4]: 6.92 µM (inactive)
GI50 [19]: 14 µM (inactive)
GI50 [5]: 10.9 µM (inactive)
GI50 [7]: 4.22 µM (inactive)
GI50 [8]: 13.3 µM (inactive)
GI50 [9]: 1.79 µM (inactive)
GI50 [10]: 3.09 µM (inactive)
GI50 [11]: 26.4 µM (inactive)
GI50 [12]: 5.45 µM (inactive)
GI50 [13]: 5.47 µM (inactive)
GI50 [14]: 6.73 µM (inactive)
GI50 [20]: 3.41 µM (inactive)
GI50 [15]: 5.38 µM (inactive)
GI50 [16]: 2.41 µM (inactive)
GI50 [17]: 4.42 µM (inactive)
GI50 [18]: 5.21 µM

O=S1(=O)c2ccccc2N(c2ccccc2)c2nnnn21
GI50 [1]: 33.4 µM (inactive)
GI50 [3]: 56.6 µM (inactive)
GI50 [4]: 33.3 µM (inactive)
GI50 [19]: 35 µM (inactive)
GI50 [5]: 38.5 µM (inactive)
GI50 [6]: 11.4 µM (inactive)
GI50 [7]: 20.9 µM (inactive)
GI50 [8]: 40.4 µM (inactive)
GI50 [9]: 18.7 µM (inactive)
GI50 [10]: 25.6 µM (inactive)
GI50 [11]: 22.8 µM (inactive)
GI50 [12]: 17.6 µM (inactive)
GI50 [13]: 29.4 µM (inactive)
GI50 [14]: 34.7 µM (inactive)
GI50 [15]: 44.3 µM (inactive)
GI50 [16]: 20.6 µM (inactive)
GI50 [17]: 47 µM (inactive)
GI50 [18]: 12.6 µM

O=C1c2ccccc2-c2c1c(-c1ccc([N+](=O)[O-])cc1)nc1ccc3ccccc3c21
GI50 [1]: > 100 µM (inactive)
GI50 [2]: > 100 µM (inactive)
GI50 [3]: > 100 µM (inactive)
GI50 [4]: > 100 µM (inactive)
GI50 [7]: > 100 µM (inactive)
GI50 [8]: > 100 µM (inactive)
GI50 [9]: > 100 µM (inactive)
GI50 [10]: > 100 µM (inactive)
GI50 [11]: > 100 µM (inactive)
GI50 [12]: > 100 µM (inactive)
GI50 [13]: > 100 µM (inactive)
GI50 [14]: > 100 µM (inactive)
GI50 [15]: > 100 µM (inactive)
GI50 [16]: > 100 µM (inactive)
GI50 [17]: > 100 µM (inactive)
GI50 [18]: > 100 µM

C=C1C(=O)OC2C1CCC(C)C1(O)C=CC(=O)C21C (configuration not stated)
GI50 [1]: > 10 µM (inactive)
GI50 [2]: 6.85 µM (inactive)
GI50 [3]: > 10 µM (inactive)
GI50 [19]: 3.33 µM (inactive)
GI50 [5]: 6.75 µM (inactive)
GI50 [6]: 2.39 µM (inactive)
GI50 [8]: > 10 µM (inactive)
GI50 [9]: > 10 µM (inactive)
GI50 [13]: > 10 µM (inactive)
GI50 [14]: > 10 µM (inactive)
GI50 [20]: 3.13 µM (inactive)
GI50 [15]: > 10 µM (inactive)
GI50 [16]: > 10 µM (inactive)
GI50 [17]: > 10 µM (inactive)
GI50 [18]: 4.5 µM

COc1cc(Cc2nccc3cc(OC)c(OC)cc23)c(/N=N/N(C)C)cc1OC
GI50 [1]: 23.4 µM (inactive)
GI50 [2]: 19 µM (inactive)
GI50 [3]: 18.4 µM (inactive)
GI50 [4]: 20.5 µM (inactive)
GI50 [5]: 20.4 µM (inactive)
GI50 [7]: 17.5 µM (inactive)
GI50 [8]: 30.6 µM (inactive)
GI50 [10]: 14.4 µM (inactive)
GI50 [11]: 18.2 µM (inactive)
GI50 [12]: 5.45 µM (inactive)
GI50 [13]: 18.7 µM (inactive)
GI50 [14]: 22.1 µM (inactive)
GI50 [15]: 10.7 µM (inactive)
GI50 [16]: 10.4 µM (inactive)
GI50 [17]: 19.9 µM (inactive)
GI50 [18]: 5 µM

Cc1cc(S(=O)(=O)Nc2nc(N)nc(N(C)C)n2)c(S)cc1Cl
GI50 [1]: > 10 µM (inactive)
GI50 [2]: > 10 µM (inactive)
GI50 [4]: > 10 µM (inactive)
GI50 [19]: > 10 µM (inactive)
GI50 [5]: > 10 µM (inactive)
GI50 [6]: > 10 µM (inactive)
GI50 [7]: > 10 µM (inactive)
GI50 [8]: > 10 µM (inactive)
GI50 [9]: > 10 µM (inactive)
GI50 [11]: > 10 µM (inactive)
GI50 [12]: > 10 µM (inactive)
GI50 [13]: > 10 µM (inactive)
GI50 [14]: > 10 µM (inactive)
GI50 [20]: > 10 µM (inactive)
GI50 [15]: > 10 µM (inactive)
GI50 [16]: > 10 µM (inactive)
GI50 [17]: > 10 µM (inactive)
GI50 [18]: > 10 µM

CCOc1cc(NC(C)=O)ccc1C(=O)NN1C(=O)/C(=C/c2ccc(Cl)cc2)N=C1c1ccccc1
GI50 [1]: 37.8 µM (inactive)
GI50 [2]: 34.3 µM (inactive)
GI50 [4]: > 100 µM (inactive)
GI50 [19]: 33.9 µM (inactive)
GI50 [5]: 49.1 µM (inactive)
GI50 [6]: 34.1 µM (inactive)
GI50 [7]: 48.5 µM (inactive)
GI50 [8]: 28.3 µM (inactive)
GI50 [9]: 90.2 µM (inactive)
GI50 [10]: 33.7 µM (inactive)
GI50 [11]: 47.4 µM (inactive)
GI50 [12]: 43.1 µM (inactive)
GI50 [13]: 34.3 µM (inactive)
GI50 [20]: 46 µM (inactive)
GI50 [15]: 43.5 µM (inactive)
GI50 [16]: 52.6 µM (inactive)
GI50 [17]: 38.5 µM (inactive)
GI50 [18]: 35.6 µM
